These results are taken from patent US10314917B2, “Targeted polymeric inflammation-resolving nanoparticles” (The Brigham and Women's Hospital, Inc., priority 2014, dated 2019).

Where no end group is shown, it is not given here.

Test [1] has as its system liver macrophage infiltration. To be noted: during dietary intervention; P<0.01; cited from earlier work.
The test system of test [2] is zymosan-stimulated PMN infiltration. Kind of test: In vivo murine zymosan-induced peritonitis. Also on record: species or system C57BL/6J mice. The note with it: 100 ng/mouse i.v.; exudates 4 h post zymosan. The procedure:
A model of self-limited peritonitis was used to quantitatively assess resolution in vivo to determine whether the developed NPs containing Ac2-26 are anti-inflammatory and/or pro-resolving (Bannenberg 2005; Schwab 2007). Zymosan A was administered to C57BL/6J mice. In parallel, mice were then given vehicle, empty NPs as control, Ac2-26 in NPs, Scrm Ac2-26 in NPs, Ac2-26 native peptides described in detail below. Equal polymer concentration was loaded in both the NPs and Ac2-26 NPs.
1 ml of zymosan A (100 μg/mouse) in 1 ml of sterile saline was administered to female C57BL/6J mice (6-8 wk old, Charles River Laboratories, Wilmington, Mass., USA) to induce peritonitis (Bannenberg et al. J Immunol 174(7):4345-4355 (2005); Norling, et al. (2011) J Immunol 186(10):5543-5547). […]
For baseline PMN number measurements, mice were euthanized at selected time intervals (4, 12, or 24 hours post zymosan stimulation), with an overdose of isofluorane, following which peritoneal exudates were collected by lavaging with Ca^2+/Mg^2+ free phosphate buffered saline (PBS^−/−, 5 ml). Leukocytes were counted with a hemocytometer.
Peritoneal exudates were harvested 4 h post zymosan initiation, and living cells were quantified using trypan blue exclusion.
Differential cell counts were assessed via flow cytometry using an LSRII flow cytometer. […]

The subject of a further test is MCP-1 and TNFα. Kind of test: MCP-1 and TNFα production in LPS-activated peritoneal macrophages (ELISA). The test is classed as cell-based, murine. To be noted: equivalent dose of GW3965. The procedure: Experiments were conducted to assess the in vitro anti-inflammatory effects of GW3965-containing NPs and their ability to regulate LXR target gene expression such as ABCA1 and SREBP-1c. LPS-activated peritoneal macrophages were treated with the indicated NPs containing equivalent doses of GW3965. The supernatant was collected for ELISA analysis of MCP-1 and TNFα. The cells were collected for RT-qPCR analysis of MCP-1 and TNFα mRNA as described below.
In the next set of experiments, GW3965-containing NPs were evaluated to see if they are able to exert anti-inflammatory effects on macrophages. Isolated murine peritoneal macrophages were first treated with lipopolysaccharide (LPS) to induce the production of pro-inflammatory factors such as MCP-1 and TNFα. The activated macrophages were then treated with an equivalent dose of GW3965 in either solution or NP form. ELISA assay was performed on the culture supernatant to determine the production of MCP-1 and TNFα.
(In general: An ELISA detects its analyte on a solid surface through an enzyme-linked reagent.)

Test [3] deals with atherosclerotic lesion area. Kind of test: Atheroprotective effect in plaque-bearing LDLr−/− mice (lesion area, Oil Red O). To be noted: 8 mg/kg GW3965 daily i.v. for 14 days. The test is classed as in vivo. The procedure:
To explore the atheroprotective effects of these NPs, plaque-bearing LDLr−/− mice were randomly divided into five groups and treated with the following regimens with equivalent doses of 8 mg/kg entrapped GW3965 via daily intravenous administration for 14 consecutive days: i) empty PLGA-b-PEG NP without GW3965 (control); ii) GW3965 in solution form; iii) CNP; iv) TNPLyP-1; and v) TNPCREKA. The aim of this study was to determine whether GW3965-containing NPs would result in inhibition of atherosclerosis development and whether peptide conjugation would improve the delivery efficacy of GW3965.

`CC/C=C\C[C@H](O)/C=C/C=C\C=C\C=C\[C@@H](O)[C@@H](O)C/C=C\CCC(=O)O` [RvD1]: in test [1], the “liver macrophage infiltration (change)” value is reported as −15%. As to “Ac2-26 peptide: annexin A1 N-terminal mimetic peptide that acts on the formyl peptide receptor ALX/FPR2 (Ac-AMVSEFLKQAWFIENEEQEYVQTVK; UniProt P04083 2-26, looked up, fragment)”, the “blockade of zymosan-stimulated PMN infiltration” value in test [2] was “approximately 30%”. Regarding `O=C(O)Cc1cccc(OCCCN(Cc2cccc(C(F)(F)F)c2Cl)CC(c2ccccc2)c2ccccc2)c1` [GW3965, 3-(3-(2-chloro-3-trifluoromethylbenzyl-2,2diphenylethylamino)proproxy), phenylacetic acid], in the test with MCP-1 and TNFα, the “production of MCP-1 and TNFα proteins” value is recorded as “substantially suppressed”. Also, the “reduction in lesion area compared with controls” value in test [3] was “pronounced reduction”.
